Data on four compounds can be found in patent US5236955A, “Anti-fungal agent” (Washington University, priority 1992, dated 1993).

Data set [1] concerns a variety of fungal species, including C. albicans. To be noted: Sabouraud dextrose agar; cited from earlier work.
Data set [2] deals with C. neoformans. Kind of data set: Viability of C. neoformans (viable cells relative to EtOH control culture). Format: cell-based, Cryptococcus neoformans. Conditions: 300 μM single dose; for fungicidal / fungistatic effect on C. neoformans: screening assay; for log reduction at 300 µM: Cryptococcus neoformans, relative to 0.1% EtOH control, read-out: decrease in viable cells (converted). As to the method:
(§1) Panel A, survey of the effects of several oxatetradecanoic acids on the growth of C. neoformans. A culture of C. neoformans was grown at 30° C. in SAB media to midlog phase (A600 ~0.5). A single dose of fatty acid was then added to subcultures (final concentration=300 μM). EtOH(0.1%) was used as a negative control. Amphotericin B (AmB) was added (final concentraton=55 μM) as a positive control. Aliquots were withdrawn from the subcultures 0, 0.5, 2, 4, 7, 21, and 24 h after these additions and then absorbance at 600 nm was measured. All assays were done in duplicate or triplicate. A representative test is shown. Panel B, survey of the effects of oxatetradecanoic acids, dioxatetradecanoic acids and oxatridecanoic acids on the viability of C. neoformans. Fatty acid analog was added to the cultures as in Panel A. Aliquots were withdrawn 0.5, 2, 4, 7 or 8, and 24 h later and plated on SAB-agar at various dilutions to determine the number of viable organisms/ml culture. All assays were done in duplicate. Data from a representative test are expressed as the ratio of viable cells in treated cultures relative to a control culture that received 0.1% EtOH. A positive control culture received a single dose of amphotericin B (55 μM); Panel C, dose-dependent reduction in the viability of C. neoformans after addition of 4-oxatetradecanoic acid (O4) to cultures during log-phase growth at 30° C. in SAB. A single dose of the analog was given at T=0 h in the amount indicated and aliquots of the culture were withdrawn at various times to determine the number of viable cells. All assays were done in triplicate. A representative test is shown.
(§2) Saccharomyces cerevisiae strain YM2061 (MATa ura3-52 his3Δ200 ade2-101 lys2-801 met LEU2::pRY181 can1; Flick and Johnston, Mol. Cell. Biol. 10, 4757-4769 (1990), Candida albicans strain B311 (obtained from the American Type Tissue Culture, Rockville, Md.), or Cryptococcus neoformans strain L210425 (a clinical isolate that is part of the permanent culture collection of the Mycology Laboratory, Barnes Hospital, St. Louis, Mo.) were grown overnight at 30 C. The S. cerevisiae strain was incubated in YPD medium (1% bacto-yeast extract, Gibco, Long Island, N.Y.), 2% bacto-peptone (Gibco), 2% dextrose). The C. albicans and C. neoformans strains were grown in Sabouraud's media (SAB; 2% (w/v) dextrose, 1% bacto-peptone). The following morning the cultures were diluted into fresh medium to the desired density at 600 nm (early log phase), and subsequently incubated in a rotary shaker at 30° C. until an A600 =0.5 (mid log phase) was achieved. The culture was then divided into 10 ml aliquots. A single 10 μl aliquot of a stock solution of fatty acid analog (prepared in various concentrations using absolute ethanol) was added to the culture so that the final concentration of the compound was 100-500 μM (T=0). Ten microliters of ethanol alone was added to one 10 ml culture which served as the negative control. Amphotericin B (AmB; in the form of Fungizone, Squibb) was added (final concentration=55 μM) to another culture which served as the positive control. At T=0 and 0.5-24 h after addition of fatty acid analog to the subcultures, an aliquot was removed for determining the density of the subculture at 600 nm. Cell viability was determined at each of these time points by (i) serially diluting the aliquot in 0.15M NaCl and counting cell number in a hemocytometer and (ii) plating 2-3 of the dilutions in triplicate onto plates of SAB/agar (C. albicans and C. neoformans) or YPD/agar (S. cerevisiae). These plates were subsequently incubated at 30° C. for 24-48 hr to allow for the growth of colonies. The data were expressed as the ratio of viable cells/ml in the fatty acid analog treated subculture to the number of viable cells/ml in the negative (ethanol) control culture.

Data set [3] relates to C. neoformans. Kind of data set: Growth of C. neoformans cultures (absorbance at 600 nm). Format: cell-based, Cryptococcus neoformans. Conditions: single 300 μM dose, exponential phase, 30° C., SAB, up to 24 h. As to the method:
as §1
as §2, with “Amphotericin B (AmB; in the form of Fungizone, Squibb) was added (final concentration=55 μM) to another culture which served as the positive control. At T=0 and 0.5-24 h after addition of fatty acid analog to the subcultures, an aliquot was removed for determining the density of the subculture at 600 nm.” left out, “These plates were subsequently incubated at 30° C. for 24-48 hr to allow for the growth of colonies.” left out, “culture. […]” for “culture.”

Data set [4] has as its system C. neoformans N-myristoylproteins. In words: Metabolic labeling of cellular N-myristoylproteins with tritiated fatty acids. Format: cell-based. To be noted: tritiated analog, 1 h, 30° C. As to the method: (§3) Cells were labeled for 1 h with fatty acids of equal specific activity. Total cellular proteins were reduced, denatured and subjected to SDS-PAGE. Gels were treated overnight with 1 N hydrocylamine (pH 10) at room temperature followed by EN^3 HANCE. Fluorography was performed at -80° C. The exposure time for all gels was identical (2 weeks) as was the total amount of cellular protein added to each lane (100 μg).
(§4) Analysis of the incorporation of exogenous fatty acids into cellular proteins--Cultures of S. cerevisiae YM2061, C. albicans B311, and C. neoformans L210425 were grown overnight at 30° C. in YPD or SAB broth. In the morning, C. albicans and C. neoformans were diluted to an A600 =0.6. All cultures were subsequently shaken at 30° C. until they achieved an A600 =1.2. A 5 ml aliquot of each culture was then incubated at 30° C. with 100 μCi/ml of either [9,10(n)^3 H]myristate (NEN Research Products, Dupont, Boston, Mass.); [6,7(n)^3 H]4-oxatetradecanoate; [9,10(n)^3 H]6-oxatetradecanoate;[9,10(n)^3 H]11-oxatetradecanoate; or [10,11(n)^3 H]13-oxatetradecanoate (the final specific activity of all tritiated fatty acids=30 Ci/mmol, their final concentration=3.3 μM). The cultures were then chilled on ice for 5 min and the cells harvested by centrifugation at 4000×g for 5 min. The pellet was washed by gentle vortexing in 1 ml of phosphate buffered saline (PBS, maintained at 4° C.). The yeast cells were then pelleted by centrifugation (as above) and broken open by vortexing with 500 μm glass beads in a 200 μl solution containing 240 mM Tris-HCl, pH 6.8, 2% SDS, 0.4% β-mercaptoethanol, 0.002% bromophenol blue, and 10% glycerol. The solution was then boiled for 5 min and cellular debris was removed by centrifugation at 12,000×g for 10 min. One hundred μg [Lowry et al., J. Biol. Chem. 193, 265-275 (1951)] of lysate protein from each sample was subjected to denaturation, reduction and electrophoresis through 12% polyacrylamide gels containing 0.1% SDS [Laemmli, Nature 227, 680-685 (1970)]. Duplicate gels were incubated overnight with 1M Tris, pH 7.4, or 1N hydroxylamine, pH 10. Fluorography was performed by treating gels with EN^3 HANCE (NEN Research Products, Dupont) and, following drying, exposing them to Kodak XAR film at -80° C.

Data set [5] deals with C. albicans N-myristoylproteins. The data set is described as above. In kind it is cell-based. Conditions: tritiated analog, 1 h, 30° C. As to the method: as §3, §4
Data set [6] has as its system S. cerevisiae N-myristoylproteins. Described as above. In kind it is cell-based. Conditions: tritiated analog, 1 h, 30° C. As to the method:
as §3, §4

Data set [7] has as its target T1, human myristoylCoA:protein N-myristoyltransferase (NMT) (Homo sapiens, UniProt P30419).
T1 sequence (P30419 1-496): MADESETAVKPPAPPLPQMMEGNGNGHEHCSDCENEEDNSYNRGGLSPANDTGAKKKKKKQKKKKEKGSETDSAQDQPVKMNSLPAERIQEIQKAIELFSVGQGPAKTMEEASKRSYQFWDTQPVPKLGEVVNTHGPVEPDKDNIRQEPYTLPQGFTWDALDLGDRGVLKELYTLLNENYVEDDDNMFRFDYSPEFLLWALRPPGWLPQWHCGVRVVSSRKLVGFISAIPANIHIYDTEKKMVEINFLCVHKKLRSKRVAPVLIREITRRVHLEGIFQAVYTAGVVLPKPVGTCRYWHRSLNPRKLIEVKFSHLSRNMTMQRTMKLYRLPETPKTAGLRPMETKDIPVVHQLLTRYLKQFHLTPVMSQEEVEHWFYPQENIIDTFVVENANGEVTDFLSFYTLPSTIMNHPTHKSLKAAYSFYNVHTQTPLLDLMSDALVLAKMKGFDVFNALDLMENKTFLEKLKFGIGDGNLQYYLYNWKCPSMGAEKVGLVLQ
Conditions: cited from earlier work.

For another data set, the system named is HIV-1. To be noted: cited from earlier work.
For data set [8], the system named is human acyl CoA synthetase. To be noted: cited from earlier work.

As to `CCCCCCCCOCC(=O)O` [3-oxaundecanoic acid, reference compound], the “effect on growth of fungal species” value in data set [1] was “broadest spectrum and highest potency”.

Regarding `CCCCCCCCCCCOCC(=O)O` [O3, 3-oxatetradecanoic acid], in data set [1], the “effect on growth of fungal species” value was “inhibited growth”. Moreover, in the data set with C. neoformans [2], the “fungicidal / fungistatic effect on C. neoformans” value (“fungicidal / fungistatic effect” for short) was “fungicidal” and the log reduction at 300 µM was 1. The “effect on growth of C. neoformans, as determined by optical density” value in the data set with C. neoformans [3] is given as “intermediate degrees of growth retardation”.

In the case of `CCCCCCCCOCCCCC(=O)O` [O6, 6-Oxatetradecanoic acid], in the data set with C. neoformans [2], the “time needed to produce the decrease in viable cells” value was 4 h, the “fungicidal / fungistatic effect” value is listed as “fungicidal” and the log reduction at 300 µM was 1. In data set [4], the “labeling of C. neoformans N-myristoylproteins versus [3H]myristate” value was “more intense labeling of 20 and 16 kDa C. neoformans N-myristoylproteins than did myristate”. Also, the “labeling of C. albicans N-myristoylproteins versus [3H]myristate” value in [5] is on record as “barely labeled”. In addition, in data set [6], the “labeling of S. cerevisiae N-myristoylproteins versus [3H]myristate” value was “failed to label”. For the same compound, the “effect on growth of C. neoformans, as determined by optical density” value in the data set with C. neoformans [3] is “intermediate degrees of growth retardation”.

With `COCCCCCCCCCCCC(=O)O` [O13, 13-oxatetradecanoic acid], the “fungicidal / fungistatic effect” value in the data set with C. neoformans [2] is “no measurable effect on the growth”. For the same compound, the “substrate for human NMT” value in [7] was “is a substrate”. Besides, the HIV-1 replication entry in the data set with HIV-1 (acutely and chronically infected human T-lymphocyte cell lines) is “inhibits HIV-1 replication”. Further, the “cellular toxicity at HIV-1 inhibiting doses” value with HIV-1 (human T-lymphocyte cell lines) is recorded as “do not cause cellular toxicity”. In [6], the “incorporation into the 55 kDa Gpal polypeptide” value was “not” and the “labeling of the 20 kDa Arfs” value is listed as “comparable intensity”. For the same compound, the “substrate for human acyl CoA synthetase” value in data set [8] is “is a substrate”.
